Test results from US9278982B2, “Targeting human thymidylate kinase induces DNA repair toxicity in malignant tumor cells” (NATIONAL YANG-MING UNIVERSITY, priority 2010, dated 2016).

Target: T1, TMPK (Homo sapiens, UniProt P23919)
T1 sequence (P23919 1-212): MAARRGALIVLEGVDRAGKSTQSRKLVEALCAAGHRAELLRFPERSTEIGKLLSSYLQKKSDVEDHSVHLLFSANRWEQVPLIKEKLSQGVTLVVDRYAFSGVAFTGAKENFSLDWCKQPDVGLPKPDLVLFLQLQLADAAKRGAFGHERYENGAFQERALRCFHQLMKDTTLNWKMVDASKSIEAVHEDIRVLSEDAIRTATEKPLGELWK
Experiment: In vitro TMPK inhibitory activity of TMPK inhibitor derivatives (inhibition yield)
Assay type: biochemical
Design: GST (N, cleaved yes); made in house; host or cells: E. coli JM109 (pGEX-2T-hTMPK), inferred
Conditions: n=3 or 6, read-out: inhibition yield, normalized to compound 21 (YMU1) = 100%
From the text: Chemical structures of the different TMPK inhibitor derivatives tested for in vitro TMPK inhibitory activity and in vivo doxorubicin sensitization activity (in MDA-MB231 cells) are depicted below.

O=C(CN1C(=O)c2ccccc2S1(=O)=O)N1CCNCC1 [compound 16, 2-(2-Oxo-2-(piperazin-1-yl)ethyl)benzo[d]isothiazol-3(2H)-one 1,1-dioxide]
inhibition at 2 µM: 11.8%

Cc1cc(C)c2c(=O)n(CC(=O)O)sc2n1 [compound 9, 2-(4,6-Dimethyl-3-oxoisothiazolo[5,4-b]pyridin-2(3H)-yl)acetic acid]
inhibition at 2 µM: 47%

Cc1cc(C)c2c(OCC(=O)O)nsc2n1 [compound 26, 2-(4,6-Dimethylisothiazolo[5,4-b]pyridin-3-yloxy)acetic acid]
inhibition at 2 µM: 16.4%

O=C(Cn1sc2ccccc2c1=O)N1CCN(C(=O)Oc2ccc([N+](=O)[O-])cc2)CC1 [compound 14, 4-Nitrophenyl 4-(2-(3-oxobenzo[d]isothiazol-2(3H)-yl)acetyl)piperazine-1-carboxylate]
inhibition at 2 µM: 129%

C=CCN1CCN(C(=O)Cn2sc3ccccc3c2=O)CC1 [compound 15, 2-(2-(4-Allylpiperazin-1-yl)-2-oxoethyl)benzo[d]isothiazol-3(2H)-one]
inhibition at 2 µM: 102%

O=C(Cn1sc2ccccc2c1=O)N1CCN(C(=O)OCc2ccccc2)CC1 [compound 13, Benzyl 4-(2-(3-oxobenzo[d]isothiazol-2(3H)-yl)acetyl)piperazine-1-carboxylate]
inhibition at 2 µM: 127%

COC(=O)Cn1sc2ccccc2c1=O [compound 6, Methyl 2-(3-oxobenzo[d]isothiazol-2(3H)-yl)acetate]
inhibition at 2 µM: 96%

COC(=O)COc1nsc2nc(C)cc(C)c12 [compound 25, Methyl 2-(4,6-dimethylisothiazolo[5,4-b]pyridin-3-yloxy)acetate]
inhibition at 2 µM: 7.8%

CCOC(=O)N1CCN(C(=O)Cn2sc3ccccc3c2=O)CC1 [compound 11, Ethyl 4-(2-(3-oxobenzo[d]isothiazol-2(3H)-yl)acetyl)piperazine-1-carboxylate]
inhibition: 100%

CCOC(=O)N1CCN(C(=O)N2Cc3ccccc3C2=O)CC1 [compound 5, Ethyl 4-(1-oxoisoindoline-2-carbonyl)piperazine-1-carboxylate]
inhibition at 2 µM: 92.9%

CC(C)(C)OC(=O)N1CCN(C(=O)CN2C(=O)c3ccccc3S2(=O)=O)CC1 [compound 17, Tert-butyl 4-(2-(3-oxobenzo[d]isothiazol-2(3H)-yl)acetyl)piperazine-1-carboxylate 1,1-dioxide]
inhibition at 2 µM: 10.1%

Cc1cc(C)c2c(=O)n(CC(=O)N3CCN(C(=O)OC(C)(C)C)CC3)sc2n1 [compound 22, Tert-butyl 4-(2-(4,6-dimethyl-3-oxoisothiazolo[5,4-b]pyridin-2(3H)-yl)acetyl) piperazine-1-carboxylate]
inhibition at 2 µM: 112%

O=C(O)Cn1sc2ccccc2c1=O [compound 8, 2-(3-oxobenzo[d]isothiazol-2(3H)-yl)acetic acid]
inhibition at 2 µM: 29.1%

Cc1ccc2c(=O)[nH]sc2n1 [compound 3, 6-Methylisothiazolo[5,4-b]pyridin-3(2H)-one]
inhibition at 2 µM: 76.5%

Cc1cc(C)c2c(=O)n(CC(=O)N3CCNCC3)sc2n1 [compound 20, 4,6-Dimethyl-2-(2-oxo-2-(piperazin-1-yl)ethyl)isothiazolo[5,4-b]pyridin-3(2H)-one]
inhibition at 2 µM: 99.5%

O=C(Cn1sc2ccccc2c1=O)N1CCN(C(=O)Cn2sc3ccccc3c2=O)CC1 [compound 24, 2,2′-(2,2′-(piperazine-1,4-diyl)bis(2-oxoethane-2,1-diyl))dibenzo[d]isothiazol-3(2H)-one]
inhibition at 2 µM: 118%

CCOC(=O)N1CCN(C(=O)CCCn2sc3ccccc3c2=O)CC1 [compound 23, Ethyl 4-(4-(3-oxobenzo[d]isothiazol-2(3H)-yl)butanoyl)piperazine-1-carboxylate]
inhibition at 2 µM: 0%

CC(C)(C)OC(=O)N1CCN(C(=O)CN2C(=O)c3ccccc3C2=O)CC1 [compound 18, Tert-Butyl 4-[2-(1,3-dioxo-1,3-dihydro-isoindol-2-yl)-acetyl]-piperazine-1-carboxylate]
inhibition at 2 µM: 51.4%
